These results are taken from US20260000676A1, “CHROMAN DERIVATIVES AS ESTROGEN RECEPTOR DEGRADERS” (THE REGENTS OF THE UNIVERSITY OF MICHIGAN, priority 2022, published 2026).

In general, pIC50 refers to −log10 of the IC50, conventionally taken in molar units. In general, DC50 refers to the concentration at which degradation of the target reaches its halfway point. Lower therefore signals a more potent degrader. As usually defined, the Dmax is the largest share of the target that was removed. Lower therefore signals shallow degradation.

Molecules are shown by their SMILES. pIC50: −log10 of the molar value.

One experiment addresses CRBN/DDB1 (Homo sapiens (Human), UniProt Q96SW2). Description: HTRF binding assay to CRBN/DDB1. Particulars: read-out: CRBN HTRF IC50. How it is done: The binding potency was determined using HTRF assay technology (Perkin Elmer). Compounds were serially diluted in DMSO and 0.2 μL volume was transferred to white 384-well plate.
Background: TR-FRET usually uses a lanthanide donor and a delayed reading to cut background.

Experiment [1] has as its target T1, ER (Homo sapiens (Human), UniProt P03372). Description: In-cell western (ICW) ER degradation assay in MCF-7 cells. The format is cell-based. Particulars: MCF7, 16 hrs; for DC50: ER degradation; for Dmax: MCF7, maximal ER degradation.
Experiment [2] concerns the target T1, ER. The experiment can be described thus: In-cell western (ICW) ER degradation assay in T47D cells. Type of experiment: cell-based. The note with it: 16 hrs; for DC50: ER degradation.
The test system of the next experiment is MCF-7 cells. Description: cells. The note with it: Homo sapiens, MCF7, 144 h, read-out: MCF7 Proliferation IC50 (nM).
The test system of another experiment is T47D cells. Description: cells. Particulars: Homo sapiens, 144 h, read-out: T47D Proliferation IC50 (nM).
In another experiment the target is ERα_LBD(GST) (Homo sapiens (Human), UniProt P03372). The experiment can be described thus: LanthaScreen TR-FRET ERα competitive binding assay. The note with it: read-out: ERα HTRF IC50. How it is done: • 1. ERα_LBD(GST) protein: 4 nM • 2. Tb Anti-GST: 2 nM • 3. Fluormone ES2 Green tracer: 3 nM • 4. Incubation time: 60 min • 5. DMSO: 1% • 6. Assay buffer: Adding 1M DTT to Nuclear receptor Buffer K for final 5 mM DTT. • 7. ZPE: 1% DMSO • 8. HPE: 1 μM ARV_471 • 9. LanthaScreen® TR-FRET ERα Competitive Binding Assay (ThermoFisher, #A15887)
• 1) Cherry pick 2 μL 10 mM compound stock to column 1 of a 384 intermediate plate • 2) Add 18 μL DMSO to column 1 to dilute compound to 1 mM. • 3) Transfer 10 μL 1 mM compound to column 1 of a LDV plate. • 2) Add 6 μl DMSO to column 2-10 of the LDV plate. • 3) Compounds undergo 3-fold serial dilution (3 μL+6 μL) in DMSO. • 4) Transfer 120 nL compound solution to assay plate. • ZPE: 120 nL 100% DMSO
Prepare complete nuclear receptor buffer K by adding 1 M DTT to nuclear receptor buffer K for a final concentration of 5 mM DTT. Complete nuclear receptor buffer K must be prepared fresh daily. Prepare 2× protein solution using complete nuclear receptor buffer K containing 8 nM ERα_LBD(GST) and 4 nM Tb Anti-GST. Then, prepare 2× Fluormone ES2 Green tracer (6 nM) using complete nuclear receptor buffer K. Add 6 μL 2× Fluormone ES2 green tracer into a compound plate (PerkinElmer 6008289) by dragonfly with one-tips-addition. Subsequently, add 6 μL 2× protein solution into the plate. Briefly and gently mix the 384-well plate on a plate shaker and incubate at room temperature protected from light for 60 min. The plate is sealed with a cover to minimize evaporation. Read the plate at wavelengths of 520 nm and 495 nm. Calculate the TR-FRET ratio by dividing the emission signal at 520 nm by the emission signal at 495 nm. Generate a binding curve by plotting the emission ratio vs. the log [ligand]. To determine the IC50 value, fit the data using XL-fit for a sigmoidal dose-response.

CRBN/DDB1, sequence (Q96SW2 whole entry): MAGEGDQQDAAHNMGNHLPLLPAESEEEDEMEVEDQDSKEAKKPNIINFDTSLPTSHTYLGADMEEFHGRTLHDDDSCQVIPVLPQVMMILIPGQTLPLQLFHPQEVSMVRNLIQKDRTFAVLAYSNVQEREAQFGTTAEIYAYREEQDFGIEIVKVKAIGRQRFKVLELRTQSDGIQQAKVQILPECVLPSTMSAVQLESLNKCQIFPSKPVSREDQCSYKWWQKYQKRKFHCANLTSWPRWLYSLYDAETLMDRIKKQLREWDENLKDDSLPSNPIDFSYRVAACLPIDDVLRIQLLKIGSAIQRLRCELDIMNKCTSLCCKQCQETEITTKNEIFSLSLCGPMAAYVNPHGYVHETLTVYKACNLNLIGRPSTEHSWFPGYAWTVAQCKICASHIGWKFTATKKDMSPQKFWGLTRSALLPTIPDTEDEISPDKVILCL
CRBN/DDB1, sequence (Q16531 whole entry partner): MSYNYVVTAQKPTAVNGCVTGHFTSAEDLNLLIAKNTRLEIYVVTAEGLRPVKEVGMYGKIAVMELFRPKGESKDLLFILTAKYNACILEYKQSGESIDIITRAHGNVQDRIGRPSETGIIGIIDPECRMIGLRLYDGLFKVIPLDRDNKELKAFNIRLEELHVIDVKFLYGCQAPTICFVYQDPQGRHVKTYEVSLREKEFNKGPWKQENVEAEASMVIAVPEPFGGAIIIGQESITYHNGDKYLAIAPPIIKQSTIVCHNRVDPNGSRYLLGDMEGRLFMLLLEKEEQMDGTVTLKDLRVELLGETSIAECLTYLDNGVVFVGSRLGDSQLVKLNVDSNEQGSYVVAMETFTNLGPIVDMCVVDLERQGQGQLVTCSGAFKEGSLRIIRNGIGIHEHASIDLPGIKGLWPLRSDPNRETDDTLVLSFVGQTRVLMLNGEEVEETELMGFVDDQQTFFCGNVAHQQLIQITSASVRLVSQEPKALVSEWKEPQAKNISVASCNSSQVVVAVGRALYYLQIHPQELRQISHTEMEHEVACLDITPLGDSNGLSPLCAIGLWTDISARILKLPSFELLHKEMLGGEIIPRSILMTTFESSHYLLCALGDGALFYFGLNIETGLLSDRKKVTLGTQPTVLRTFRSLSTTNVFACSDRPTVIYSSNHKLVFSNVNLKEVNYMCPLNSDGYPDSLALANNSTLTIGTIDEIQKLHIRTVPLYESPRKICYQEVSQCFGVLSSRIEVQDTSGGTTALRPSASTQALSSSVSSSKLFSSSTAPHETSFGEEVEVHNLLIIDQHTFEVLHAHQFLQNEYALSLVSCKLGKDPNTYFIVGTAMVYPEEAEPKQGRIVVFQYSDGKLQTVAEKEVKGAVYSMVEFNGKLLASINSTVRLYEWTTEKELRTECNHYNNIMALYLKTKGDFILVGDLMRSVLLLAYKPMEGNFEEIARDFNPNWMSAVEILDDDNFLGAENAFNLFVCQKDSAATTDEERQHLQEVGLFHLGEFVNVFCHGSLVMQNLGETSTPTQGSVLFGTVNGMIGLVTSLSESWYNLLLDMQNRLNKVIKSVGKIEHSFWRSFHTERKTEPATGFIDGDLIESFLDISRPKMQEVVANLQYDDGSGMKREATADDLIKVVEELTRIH
ERα_LBD(GST), sequence (P03372 311-547): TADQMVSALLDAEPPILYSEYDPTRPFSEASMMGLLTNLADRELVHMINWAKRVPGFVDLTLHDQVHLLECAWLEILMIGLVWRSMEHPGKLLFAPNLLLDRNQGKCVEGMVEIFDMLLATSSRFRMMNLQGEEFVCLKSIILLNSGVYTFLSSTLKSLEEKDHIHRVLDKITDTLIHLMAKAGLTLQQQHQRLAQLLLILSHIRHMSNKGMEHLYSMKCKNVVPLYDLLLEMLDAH
T1 sequence (P03372 whole entry): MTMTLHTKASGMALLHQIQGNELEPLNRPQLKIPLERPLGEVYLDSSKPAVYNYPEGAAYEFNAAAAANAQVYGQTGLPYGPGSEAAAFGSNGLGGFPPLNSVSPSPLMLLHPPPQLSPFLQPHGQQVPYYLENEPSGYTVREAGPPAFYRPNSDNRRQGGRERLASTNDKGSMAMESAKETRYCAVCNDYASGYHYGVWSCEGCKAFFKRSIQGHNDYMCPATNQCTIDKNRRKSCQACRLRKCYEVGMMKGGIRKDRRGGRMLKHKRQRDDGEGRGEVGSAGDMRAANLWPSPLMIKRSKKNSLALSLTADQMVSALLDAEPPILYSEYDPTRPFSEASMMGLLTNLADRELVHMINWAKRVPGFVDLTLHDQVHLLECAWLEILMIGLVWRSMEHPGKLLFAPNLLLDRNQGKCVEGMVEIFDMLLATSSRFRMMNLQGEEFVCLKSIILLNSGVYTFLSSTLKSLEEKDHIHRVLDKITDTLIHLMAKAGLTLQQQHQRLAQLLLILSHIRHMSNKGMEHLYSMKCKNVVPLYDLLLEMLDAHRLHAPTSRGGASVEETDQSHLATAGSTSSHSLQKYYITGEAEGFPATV

On to `O=C1CCC(Nc2ccc(N3CCN(CC4CC5(CCN(c6ccc([C@H]7c8ccc(O)cc8OC[C@H]7c7ccccc7)cc6)CC5)C4)CC3)c(F)c2)C(=O)N1` (single isomer, unassigned) [Compound A51], for which the negative logarithm of the IC50 (pIC50) at CRBN/DDB1 was 5.30 to 6.30. The DC50 on ER [1] and on ER [2] was less than 1 nM in each case. The maximal degradation (Dmax) at ER [1] and at ER [2] (maximal ER degradation) was 25 to 50% throughout. The IC50 in the experiment on MCF-7 cells and in the experiment with T47D cells was 50 to 500 nM throughout.

With `O=C1CC[C@H](N2Cc3cc4c(cc3C2)N2CCN(C[C@@H]3COC5(CCN(c6ccc([C@H]7c8ccc(O)cc8OC[C@H]7c7ccccc7)cc6F)CC5)C3)C[C@H]2CO4)C(=O)N1` [Compound A161, (S)-3-((S)-3-(((R)-8-(2-fluoro-4-((3R,4S)-7-hydroxy-3-phenylchroman-4-yl)phenyl)-1-oxa-8-azaspiro[4.5]decan-3-yl)methyl)-1,2,3,4,4a, 5,8,10-octahydro-9H-pyrazino[1′,2′:4,5][1,4]oxazino[2,3-f]isoindol-9-yl)piperidine-2,6-dione], the pIC50 on CRBN/DDB1 is 6.30 to 7.30. The DC50 on ER [1] and on ER [2] was less than 1 nM each time. The values for the Dmax at ER [1] and on ER [2] (maximal ER degradation) were 50 to 75% and no less than 75%, respectively. Besides, the IC50 in the experiment with MCF-7 cells is less than 50 nM.

For `O=C1CCC(N2Cc3c(ccc4c3OCC43CCN(CC4CCC5(CC4)CN(c4ccc([C@@H]6c7ccc(O)cc7OC[C@@H]6c6ccccc6)cc4)C5)CC3)C2=O)C(=O)N1` (stereo partly drawn) [Compound A114, 3-(1′-((2-(4-((3S,4R)-7-hydroxy-3-phenylchroman-4-yl)phenyl)-2-azaspiro[3.5]nonan-7-yl)methyl)-6-oxo-6,8-dihydro-2H,7H-spiro[furo[2,3-e]isoindole-3,4′-piperidin]-7-yl)piperidine-2,6-dione], the pIC50 on CRBN/DDB1 is greater than 7.30. Moreover, the DC50 on ER [1] and on ER [2] was less than 1 nM each time. Besides, the Dmax on ER [1] and on ER [2] (maximal ER degradation) was no less than 75% in each case. Moreover, the IC50 in the experiment on MCF-7 cells and with T47D cells was less than 50 nM in each case.

As to `COc1cc(C(=O)NC2CCC(=O)NC2=O)ncc1N1CCN(CC2CC3(CCN(c4ccc([C@H]5c6ccc(O)cc6OC[C@H]5c5ccccc5)cc4)CC3)C2)CC1` (single isomer, unassigned) [Compound A116], the pIC50 on CRBN/DDB1 was 5.30 to 6.30. Further, the DC50 on ER [1] and at ER [2] was less than 1 nM in each case. The Dmax at ER [1] and at ER [2] (maximal ER degradation) was 50 to 75% in each case. For the same compound, the IC50 with MCF-7 cells is less than 50 nM; in the experiment with T47D cells, 50 to 500 nM.

As to `O=C1CCC(N2Cc3cc4c(cc3C2=O)CN(C(=O)C2CCN(C3CCN(c5ccc([C@@H]6c7ccc(O)cc7OC[C@@H]6c6ccccc6)cc5)CC3)CC2)C4)C(=O)N1` (single isomer, unassigned) [Compound A81], the pIC50 at CRBN/DDB1 is 5.30 to 6.30; on ERα_LBD(GST) it was greater than 8.30. In addition, the half-maximal degradation concentration (DC50) at ER [1] and at ER [2] was less than 1 nM throughout. The maximal degradation (Dmax) on ER [1] and at ER [2] (maximal ER degradation) was no less than 75% in each case.

On to `O=C1CC[C@@H](Nc2ccc(C3CCN(CC4CCC5(CC4)CN(c4ccc([C@H]6c7ccc(O)cc7OC[C@H]6c6ccccc6)cc4)C5)CC3)cc2)C(=O)N1` (single isomer, unassigned) [Compound A140], for which the negative-log IC50 (pIC50) on CRBN/DDB1 is 5.30 to 6.30; on ERα_LBD(GST), greater than 8.30. In addition, the DC50 on ER [1] and at ER [2] was less than 1 nM throughout. In addition, the maximal degradation (Dmax) on ER [1] and at ER [2] (maximal ER degradation) was 50 to 75% each time.

With `O=C1CCC(N2Cc3c(ccc4c3OCC43CCN(CC4COC5(CCN(c6ccc([C@H]7c8ccc(O)cc8OC[C@H]7c7ccccc7)cc6)CC5)C4)CC3)C2=O)C(=O)N1` (stereo partly drawn) [Compound A146, 3-(1′-((8-(4-((3R,4S)-7-hydroxy-3-phenylchroman-4-yl)phenyl)-1-oxa-8-azaspiro[4.5]decan-3-yl)methyl)-6-oxo-6,8-dihydro-2H,7H-spiro[furo[2,3-e]isoindole-3,4′-piperidin]-7-yl)piperidine-2,6-dione], the values for the negative-log IC50 (pIC50) at CRBN/DDB1 and at ERα_LBD(GST) were greater than 7.30 and no more than 8.30, respectively. Also, the 50% degradation concentration (DC50) on ER [1] and at ER [2] was 1 to 10 nM in each case. Besides, the greatest degradation seen (Dmax) on ER [1] was in the range of 50 to 75%; on ER [2] (maximal ER degradation) it was 25 to 50%.

Consider `COc1cc(N2CCC3(CC2)CC(CN2CCC4(CC2)COc2c4ccc4c2CN(C2CCC(=O)NC2=O)C4=O)C3)c(F)cc1[C@H]1c2ccc(O)cc2OC[C@H]1c1ccccc1` (stereo partly drawn) [Compound A130, 3-(1′-((7-(2-fluoro-4-((3R,4R)-7-hydroxy-3-phenylchroman-4-yl)-5-methoxyphenyl)-7-azaspiro[3.5]nonan-2-yl)methyl)-6-oxo-6,8-dihydro-2H,7H-spiro[furo[2,3-e]isoindole-3,4′-piperidin]-7-yl)piperidine-2,6-dione], for which the figures for the negative logarithm of the IC50 (pIC50) on CRBN/DDB1 and on ERα_LBD(GST) were 6.30 to 7.30 and greater than 8.30, respectively. In addition, the DC50 at ER [1] and at ER [2] was less than 1 nM each time. Further, the “MCF7 Dmax %” value at ER [1] (maximal ER degradation) is “A (“A”; >=75%)”. For the same compound, the “T47D Dmax %” value on ER [2] (maximal ER degradation) is reported as “A (“A”; >=75%)”.

As for `O=C1CC[C@@H](N2Cc3cc4c(cc3C2=O)CN(C(=O)CN2CCC3(CC2)CCN(c2ccc([C@H]5c6ccc(O)cc6OC[C@H]5c5ccccc5)cc2)CC3)C4)C(=O)N1` (single isomer, unassigned) [Compound A41], the negative logarithm of the IC50 (pIC50) at CRBN/DDB1 is 6.30 to 7.30; at ERα_LBD(GST) it was no more than 8.30. Also, the DC50 is 1 to 10 nM on ER [1] and less than 1 nM at ER [2]. The Dmax at ER [1] is 50 to 75%; on ER [2] (maximal ER degradation), no less than 75%.

For `O=C1CCC(N2Cc3cc4c(cc3C2=O)CN(C(=O)CN2CCC3(CC2)CN(c2ccc([C@@H]5c6ccc(O)cc6OC[C@@H]5c5ccccc5)cc2)C3)C4)C(=O)N1` (stereo partly drawn) [Compound A49, 3-(6-(2-(2-(4-((3S,4R)-7-hydroxy-3-phenylchroman-4-yl)phenyl)-2,7-diazaspiro[3.5]nonan-7-yl)acetyl)-1-oxo-3,5,6,7-tetrahydropyrrolo[3,4-f]isoindol-2(1H)-yl)piperidine-2,6-dione], the pIC50 on CRBN/DDB1 was 6.30 to 7.30; at ERα_LBD(GST) it was greater than 8.30. Further, the 50% degradation concentration (DC50) at ER [1] and at ER [2] was 1 to 10 nM each time. Moreover, the Dmax on ER [1] and at ER [2] (maximal ER degradation) was 50 to 75% in each case.

With `O=C1CC[C@H](NC(=O)c2ccc3c(n2)OC[C@H]2CN(C[C@H]4COC5(CCN(c6ccc([C@@H]7c8ccc(O)cc8OC[C@@H]7c7ccccc7)cc6)CC5)C4)CCN32)C(=O)N1` [Compound A147, (R)-N-((S)-2,6-dioxopiperidin-3-yl)-3-(((S)-8-(4-((3S,4R)-7-hydroxy-3-phenylchroman-4-yl)phenyl)-1-oxa-8-azaspiro[4.5]decan-3-yl)methyl)-1,2,3,4,4a,5-hexahydropyrazino[1,2-d]pyrido[2,3-b][1,4]oxazine-8-carboxamide], the pIC50 at CRBN/DDB1 is 5.30 to 6.30; at ERα_LBD(GST), greater than 8.30. Further, the DC50 at ER [1] and on ER [2] was less than 1 nM throughout. Also, the maximal degradation (Dmax) on ER [1] and on ER [2] (maximal ER degradation) was 50 to 75% throughout.

Take `O=C1CC[C@@H](NC(=O)c2ccc(N3CCN(CC4COC5(CCN(c6ccc([C@H]7c8ccc(O)cc8OC[C@H]7c7ccccc7)cc6)CC5)C4)CC3)cn2)C(=O)N1` (single isomer, unassigned) [Compound A145]: the pIC50 was less than 5.30 at CRBN/DDB1 and greater than 8.30 on ERα_LBD(GST). For the same compound, the 50% degradation concentration (DC50) is 1 to 10 nM at ER [1] and less than 1 nM on ER [2]. For the same compound, the greatest degradation seen (Dmax) on ER [1] and at ER [2] (maximal ER degradation) was 50 to 75% each time.

With `O=C1CCC(N2C(=O)c3cc4c(cc3C2=O)CN(CC(=O)N2CCC3(CC2)CN(c2ccc([C@@H]5c6ccc(O)cc6OC[C@@H]5c5ccccc5)cc2)C3)C4)C(=O)N1` (single isomer, unassigned) [Compound A44], the pIC50 at CRBN/DDB1 was 6.30 to 7.30; at ERα_LBD(GST), greater than 8.30. Further, the results for the half-maximal degradation concentration (DC50) at ER [1] and at ER [2] were 1 to 10 nM and less than 1 nM, respectively. The Dmax at ER [1] and on ER [2] (maximal ER degradation) was 50 to 75% throughout.
